Entries after “also recorded” stand apart in the source; their conditions may differ.
How the values were obtained:
[1] = system: acetylation of aromatic amines (N-acetylation); assay: Acetylating properties of the organism: acetylation of sodium sulfacyl, arylamines determined in urine; format: in vivo, white rats; conditions: for % of excretion from the dose, In acetylated form / % of excretion from the dose, In free form / Acetylating properties of the organism: Na sulfacyl acetylating in the organism of rats; for Concentration in urine, In acetylated form / Concentration in urine, In free form: Na sulfacyl in rat urine; for Na sulfacyl excretion, Sulfacyl isolation M ± m, In acetylated form / Na sulfacyl excretion, Sulfacyl isolation M ± m, In free form / Na sulfacyl excretion, Sulfacyl isolation M ± m, Total / Na sulfacyl excretion, Excretion % from the dose: rats; for Na sulfacyl excretion, Sulfacyl isolation M ± m, In acetylated form / Na sulfacyl excretion, Sulfacyl isolation M ± m, In free form / Na sulfacyl excretion, Sulfacyl isolation M ± m, Total: agent i.p. for 4 days, then Na sulfacyl 20 mg/kg i.p., urine; for Na sulfacyl excretion, Excretion % from the dose: total sulfacyl in urine relative to the sulfacyl dose
Protocol: The level of the organism supply with a vitamin is determined by the study of the reaction of acetylation of exogenous aromatic amines. The total acetylating properties of the organism were assessed by the method of quantitative determination of the content of arylamines in the examined substrate (urine).
Sodium sulfacyl was chosen as the substance for acetylation.
The influence of 4-days of injections of ketopanthenol on the acetylating properties of white rats was examined during the experiments.
The experiments were carried out using mongrel pubescent male rats. 14 animals were included in each group. The examined agent was injected intraperitoneally in a dose of 29 mg/kg. On the 4th day 4 hours after the last injection of the examined agent the sodium sulfacyl solution in a dose of 20 mg/kg was injected intraperitoneally. All the rats were separated into exchangeable cages for urine gathering. The resulting data were compared with the control groups (group I - only received sodium sulfacyl in a dose of 20 mg/kg, and group II received calcium D-pantothenate).
The average weight of the animals in the group fluctuated within 154.7 ± 10.8 g, the absolute dose of sodium sulfacyl was 3.09 ± 0.14 mg.

in vivo = conditions: mouse, po
Protocol: (§1) To determine acute toxicity of ketopanthenol, non-linear white mice of both sexes with the average mass of 19 ± 3 g were used. There were 72 mice in the experiment, the animals were divided into 12 groups, 6 animals in each group. The mice of the first 6 groups received ketopanthenol in 0.2 ml of distilled water once internally in doses: 20.0, 21.0, 22.0, 23.0, 24.0 and 25.0 g/kg.
(§2) The 12 group was the control one, the mice of this group received once internally only 0.2 ml of distilled water.
(§3) The mice were under observation for 14 days.
(§4) The LD50 calculations were carried out according to Kerber

non-linear white rats = assay: Subchronic toxicity and local irritating effect, 2 months daily dosing, mass growth; format: in vivo
Protocol: The study of subchronic toxicity and the local irritating effect of ketopanthenol.
In the experiment carried out for 2 months, non-linear white rats of both sexes with the average initial weight of 75 ± 3.3 g were used. The animals were divided into 7 groups. The first three groups received daily, during the whole experimental period, ketopanthenol in 0.2 ml of distilled water in doses of 13.2 mg/kg (which corresponds to the therapeutic dose of vitamin B3), 132.0 and 264 mg/kg (in doses 10 and 20 times larger than the therapeutic dose). […] The animals of the seventh group were used as control, receiving internally 0.2 ml of distilled water daily.
During the whole experiment the animals were weighed once a week and the observation on their development, state and behavior was carried out.

non-linear white mice = assay: in vivo; conditions: mouse
Protocol: as §1, §2, §3, §4

Solubility in solvents = format: physicochemical
[2] = system: conjunctive bag of the eye; assay: Eye irritation, aqueous solution dripped into the conjunctive bag; format: in vivo; conditions: eye of 5 rabbits, three days
Text: The aqueous solution of ketopanthenol was dripped into the conjunctive bag of the eye of 5 rabbits weighing 2.5 ± 0.3 kg for three days.

[3] = dose 10 times larger than the therapeutic dose (132.0 mg/kg), 2 months
[4] = dose 20 times larger than the therapeutic dose (264 mg/kg), 2 months
[5] = rats, 13.2 mg/kg daily, 2 months
[6] = rats, 132.0 mg/kg daily, 2 months
[7] = rats, 264.0 mg/kg daily, 2 months
[8] = therapeutic dose (13.2 mg/kg), 2 months

Row | SMILES | % of excretion from the dose, In acetylated form [1] [%] | % of excretion from the dose, In free form [1] [%] | Acetylating properties of the organism [1] | Concentration in urine, In acetylated form [1] [mg/mL] | Concentration in urine, In free form [1] [mg/mL] | Na sulfacyl excretion, Sulfacyl isolation M ± m, In acetylated form [1] | Na sulfacyl excretion, Sulfacyl isolation M ± m, In free form [1] | Na sulfacyl excretion, Sulfacyl isolation M ± m, Total [1] | Na sulfacyl excretion, Excretion % from the dose [1] [%] | MTD at 336 h (in vivo) [mg/kg] | growth of the mass of the rats, higher in comparison with the control animals (non-linear white rats; [3]) [%] | growth of the mass of the rats, higher in comparison with the control animals (non-linear white rats; [4]) [%] | Mass growth during the experiment (non-linear white rats; [5]) [g] | Mass growth during the experiment, % to the control (non-linear white rats; [5]) [%] | Mass, Final (non-linear white rats; [5]) | Mass growth during the experiment (non-linear white rats; [6]) [g] | Mass growth during the experiment, % to the control (non-linear white rats; [6]) [%] | Mass, Final (non-linear white rats; [6]) | Mass growth during the experiment (non-linear white rats; [7]) [g] | Mass growth during the experiment, % to the control (non-linear white rats; [7]) [%] | further results
1 | CC(C)(CO)[C@@H](O)C(=O)NCCC(=O)O [D (+) pantothenate Ca, calcium D-pantothenate, reference compound] | 22.3 ± 1.8 | 70.7 ± 6.0 | 24.0 | 0.172 | 0.54 | 0.67 ± 0.04 | 2.12 ± 0.09 | 2.79 ± 0.19 | 93.0 |  |  |  |  |  |  |  |  |  |  |  | 
2 | CC(C)(CO)[C@@H](O)C(=O)NCCCO [D-panthenol, D-pantothenyl alcohol, reference compound] |  |  |  |  |  |  |  |  |  | 21000 | 9.3 | 5.2 | 129.5 ± 8.5 | 108.0 | 202.0 ± 16.4 | 131.1 ± 8.5 | 109.3 | 205.1 ± 16.0 | 126.1 ± 9.3 | 105.2 | Mass, Final (non-linear white rats; [7]): 197.3 ± 18.8; growth of the mass of the rats, higher in comparison with the control animals (non-linear white rats; [8]): 8.0%
3 | CC(C)(CO)C(=O)C(=O)NCCCO [ketopanthenol] | 32.0 ± 2.3 | 62.1 ± 2.9 | 34.0 | 0.36 | 0.71 | 0.99 ± 0.4 | 1.92 ± 0.09 | 2.91 ± 0.21 | 94.2 | 21000 | 12.0 | 6.5 | 132.7 ± 10.7 | 103.72 | 210.7 ± 18.1 | 134.3 ± 8.4 | 112.0 | 209.5 ± 22.5 | 127.7 ± 11.0 | 106.5 | excretion of the sulfacyl in its free form, lower ([1]; compared with the series I (control)): 20%; increase of the acetylating properties of the organism ([1]; in comparison with calcium D-pantothenate): 1.5 times; increase of the excretion of the acetylated product ([1]; in comparison with group II (calcium D-pantothenate)): 1.7 times; increase of the acetylating properties of the organism ([1]; in comparison with the control): 3.6 times; increase of the excretion of the acetylated product ([1]; in comparison with the control group): 4 times; dose from which mice lost mobility, had quickened breathing, inertia, narrowed eye slots (non-linear white mice): ≥ 22000 mg/kg; LD100 (non-linear white mice; 20160 min): 25000 mg/kg; LD50 at 336 h (in vivo): 23500 mg/kg; Mass, Final (non-linear white rats; [7]): 200.1 ± 12.3; changes in development, state and behavior of the animals (non-linear white rats; rats, 2 months, in comparison with the control rats): No changes; toxic influence on the animals' organism (non-linear white rats; rats, prolonged period (2 months)): no toxic influence; also recorded: no toxic effect; local irritating effect (non-linear white rats; rats, visual examination of the internal organs after slaughtering): no local irritating effect was observed; growth of the mass of the rats, higher in comparison with the control animals (non-linear white rats; [8]): 10.7%; solubility (Solubility in solvents; in ether): poor solubility; solubility (Solubility in solvents; in water, alcohols, acetone, chloroform): good solubility; irritating effect [2]: No irritating effect was observed
